IC50 data for one compound are collected here from article PMC6407917, “Identification of GSK3186899/DDD853651 as a Preclinical Development Candidate for the Treatment of Visceral Leishmaniasis” (Journal of Medicinal Chemistry, 2018).

What all share (assay): biochemical
Design in all cases: species or system HEK293/K-562/placenta mixed human extract; Kinobeads chemoproteomic competition binding, quantified by TMT LC-MS/MS, dose response up to 20 uM

Assay [1] deals with RPS6KB1 (Homo sapiens, UniProt P23443).
The target of assay [2] is DSTYK (Homo sapiens, UniProt Q6XUX3).
The target in assay [3] is STK38 (Homo sapiens, UniProt Q15208).
Assay [4] addresses MAP2K4 (Homo sapiens, UniProt P45985).
The target of assay [5] is STK35 (Homo sapiens, UniProt Q8TDR2).
In assay [6] the target is AZI2 (Homo sapiens, UniProt Q9H6S1).
The target in assay [7] is MAP2K3 (Homo sapiens, UniProt P46734).
Assay [8] addresses MAP2K6 (Homo sapiens, UniProt P52564).
The target of assay [9] is IRAK3 (Homo sapiens, UniProt Q9Y616).
In assay [10] the target is FRK (Homo sapiens, UniProt P42685).
The target of assay [11] is FGR (Homo sapiens, UniProt P09769).
The target in assay [12] is CSNK1D (Homo sapiens, UniProt P48730).
Assay [13] has as its target TEK (Homo sapiens, UniProt Q02763).
The target in assay [14] is CDK2 (Homo sapiens, UniProt P24941).
Assay [15] has as its target CAMKK2 (Homo sapiens, UniProt Q96RR4).
Assay [16] deals with JAK2 (Homo sapiens, UniProt O60674).
Assay [17] has as its target RIPK1 (Homo sapiens, UniProt Q13546).
Assay [18] deals with ERBB4 (Homo sapiens, UniProt Q15303).
Assay [19] deals with STK39 (Homo sapiens, UniProt Q9UEW8).
The target in assay [20] is ERN1 (Homo sapiens, UniProt O75460).
In assay [21] the target is ABL2 (Homo sapiens, UniProt P42684).
ABL2, sequence (P42684 whole entry): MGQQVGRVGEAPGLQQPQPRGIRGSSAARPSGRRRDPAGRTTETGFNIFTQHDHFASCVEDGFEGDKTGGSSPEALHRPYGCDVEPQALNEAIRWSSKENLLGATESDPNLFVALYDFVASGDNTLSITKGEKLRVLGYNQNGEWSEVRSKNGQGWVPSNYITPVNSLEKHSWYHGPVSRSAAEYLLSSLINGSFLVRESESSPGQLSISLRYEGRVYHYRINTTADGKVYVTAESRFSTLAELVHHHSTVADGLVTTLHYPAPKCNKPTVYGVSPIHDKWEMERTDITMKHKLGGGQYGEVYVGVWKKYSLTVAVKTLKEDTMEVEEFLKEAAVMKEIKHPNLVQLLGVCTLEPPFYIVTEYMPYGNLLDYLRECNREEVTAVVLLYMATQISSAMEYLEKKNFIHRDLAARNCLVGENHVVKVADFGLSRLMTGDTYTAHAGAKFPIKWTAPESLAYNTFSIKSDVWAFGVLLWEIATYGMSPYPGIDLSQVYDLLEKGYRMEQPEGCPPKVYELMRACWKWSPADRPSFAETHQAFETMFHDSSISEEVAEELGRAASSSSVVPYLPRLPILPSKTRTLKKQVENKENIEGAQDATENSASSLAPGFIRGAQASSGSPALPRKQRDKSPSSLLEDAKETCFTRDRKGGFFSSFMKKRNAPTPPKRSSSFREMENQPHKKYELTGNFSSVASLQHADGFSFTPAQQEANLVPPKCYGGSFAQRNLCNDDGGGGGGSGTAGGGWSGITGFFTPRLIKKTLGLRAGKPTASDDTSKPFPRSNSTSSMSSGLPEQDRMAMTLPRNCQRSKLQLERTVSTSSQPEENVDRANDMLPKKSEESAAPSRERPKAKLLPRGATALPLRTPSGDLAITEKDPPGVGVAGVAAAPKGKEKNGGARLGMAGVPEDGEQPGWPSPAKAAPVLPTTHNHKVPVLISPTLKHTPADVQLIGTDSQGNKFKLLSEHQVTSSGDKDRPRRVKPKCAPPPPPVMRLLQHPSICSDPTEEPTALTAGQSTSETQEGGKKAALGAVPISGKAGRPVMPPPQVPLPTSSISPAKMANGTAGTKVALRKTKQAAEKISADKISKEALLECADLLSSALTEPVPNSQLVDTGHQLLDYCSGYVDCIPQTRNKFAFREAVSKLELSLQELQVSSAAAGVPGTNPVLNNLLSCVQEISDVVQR

STK35, sequence (Q8TDR2 whole entry): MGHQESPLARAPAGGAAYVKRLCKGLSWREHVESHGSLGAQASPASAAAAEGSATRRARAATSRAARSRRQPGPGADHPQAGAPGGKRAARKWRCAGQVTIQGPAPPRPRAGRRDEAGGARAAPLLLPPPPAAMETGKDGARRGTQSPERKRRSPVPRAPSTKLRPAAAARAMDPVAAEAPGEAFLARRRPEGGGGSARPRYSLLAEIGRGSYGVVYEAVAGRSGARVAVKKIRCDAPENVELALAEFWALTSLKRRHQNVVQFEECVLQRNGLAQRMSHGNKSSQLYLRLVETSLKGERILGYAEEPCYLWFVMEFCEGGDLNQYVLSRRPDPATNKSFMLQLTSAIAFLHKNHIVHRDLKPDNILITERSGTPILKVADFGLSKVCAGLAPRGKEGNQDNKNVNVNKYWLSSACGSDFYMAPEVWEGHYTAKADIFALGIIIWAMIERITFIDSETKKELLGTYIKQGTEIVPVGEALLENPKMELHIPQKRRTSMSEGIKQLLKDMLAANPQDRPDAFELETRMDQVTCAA
RPS6KB1, sequence (P23443 whole entry): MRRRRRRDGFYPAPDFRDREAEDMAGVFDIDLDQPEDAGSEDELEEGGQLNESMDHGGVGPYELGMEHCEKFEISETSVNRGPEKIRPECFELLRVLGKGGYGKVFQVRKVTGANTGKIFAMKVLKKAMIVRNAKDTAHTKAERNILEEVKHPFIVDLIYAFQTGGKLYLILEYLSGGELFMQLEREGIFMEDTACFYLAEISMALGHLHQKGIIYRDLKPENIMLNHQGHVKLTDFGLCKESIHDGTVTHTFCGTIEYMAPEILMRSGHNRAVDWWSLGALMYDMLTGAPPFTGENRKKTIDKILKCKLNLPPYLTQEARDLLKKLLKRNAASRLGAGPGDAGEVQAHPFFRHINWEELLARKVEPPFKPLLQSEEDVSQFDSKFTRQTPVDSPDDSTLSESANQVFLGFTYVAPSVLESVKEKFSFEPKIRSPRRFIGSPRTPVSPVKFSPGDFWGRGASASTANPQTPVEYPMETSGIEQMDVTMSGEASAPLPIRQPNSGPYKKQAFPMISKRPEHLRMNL
STK38, sequence (Q15208 whole entry): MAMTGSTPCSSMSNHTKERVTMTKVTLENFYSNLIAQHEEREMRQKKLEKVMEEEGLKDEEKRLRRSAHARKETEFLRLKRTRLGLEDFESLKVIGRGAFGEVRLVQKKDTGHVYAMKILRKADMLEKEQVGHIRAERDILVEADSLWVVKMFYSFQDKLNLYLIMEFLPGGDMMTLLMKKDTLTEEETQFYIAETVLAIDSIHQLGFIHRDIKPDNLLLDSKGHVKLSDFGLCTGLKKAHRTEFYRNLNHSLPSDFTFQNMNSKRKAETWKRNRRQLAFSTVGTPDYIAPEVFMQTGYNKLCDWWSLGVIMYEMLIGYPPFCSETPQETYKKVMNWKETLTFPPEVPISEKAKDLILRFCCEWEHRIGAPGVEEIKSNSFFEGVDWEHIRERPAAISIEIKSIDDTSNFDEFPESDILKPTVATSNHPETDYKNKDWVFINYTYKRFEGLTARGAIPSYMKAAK
CSNK1D, sequence (P48730 whole entry): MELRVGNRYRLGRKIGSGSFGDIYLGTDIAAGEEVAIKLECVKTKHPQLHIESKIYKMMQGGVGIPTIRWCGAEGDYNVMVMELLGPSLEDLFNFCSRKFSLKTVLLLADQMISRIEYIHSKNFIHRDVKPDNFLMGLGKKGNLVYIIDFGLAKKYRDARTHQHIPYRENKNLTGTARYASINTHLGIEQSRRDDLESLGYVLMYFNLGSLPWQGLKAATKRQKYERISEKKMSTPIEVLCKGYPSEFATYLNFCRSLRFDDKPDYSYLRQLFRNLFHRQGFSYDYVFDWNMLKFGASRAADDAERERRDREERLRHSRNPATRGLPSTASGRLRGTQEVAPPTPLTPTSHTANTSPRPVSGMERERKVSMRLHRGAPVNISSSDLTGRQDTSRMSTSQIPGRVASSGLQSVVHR
TEK, sequence (Q02763 whole entry): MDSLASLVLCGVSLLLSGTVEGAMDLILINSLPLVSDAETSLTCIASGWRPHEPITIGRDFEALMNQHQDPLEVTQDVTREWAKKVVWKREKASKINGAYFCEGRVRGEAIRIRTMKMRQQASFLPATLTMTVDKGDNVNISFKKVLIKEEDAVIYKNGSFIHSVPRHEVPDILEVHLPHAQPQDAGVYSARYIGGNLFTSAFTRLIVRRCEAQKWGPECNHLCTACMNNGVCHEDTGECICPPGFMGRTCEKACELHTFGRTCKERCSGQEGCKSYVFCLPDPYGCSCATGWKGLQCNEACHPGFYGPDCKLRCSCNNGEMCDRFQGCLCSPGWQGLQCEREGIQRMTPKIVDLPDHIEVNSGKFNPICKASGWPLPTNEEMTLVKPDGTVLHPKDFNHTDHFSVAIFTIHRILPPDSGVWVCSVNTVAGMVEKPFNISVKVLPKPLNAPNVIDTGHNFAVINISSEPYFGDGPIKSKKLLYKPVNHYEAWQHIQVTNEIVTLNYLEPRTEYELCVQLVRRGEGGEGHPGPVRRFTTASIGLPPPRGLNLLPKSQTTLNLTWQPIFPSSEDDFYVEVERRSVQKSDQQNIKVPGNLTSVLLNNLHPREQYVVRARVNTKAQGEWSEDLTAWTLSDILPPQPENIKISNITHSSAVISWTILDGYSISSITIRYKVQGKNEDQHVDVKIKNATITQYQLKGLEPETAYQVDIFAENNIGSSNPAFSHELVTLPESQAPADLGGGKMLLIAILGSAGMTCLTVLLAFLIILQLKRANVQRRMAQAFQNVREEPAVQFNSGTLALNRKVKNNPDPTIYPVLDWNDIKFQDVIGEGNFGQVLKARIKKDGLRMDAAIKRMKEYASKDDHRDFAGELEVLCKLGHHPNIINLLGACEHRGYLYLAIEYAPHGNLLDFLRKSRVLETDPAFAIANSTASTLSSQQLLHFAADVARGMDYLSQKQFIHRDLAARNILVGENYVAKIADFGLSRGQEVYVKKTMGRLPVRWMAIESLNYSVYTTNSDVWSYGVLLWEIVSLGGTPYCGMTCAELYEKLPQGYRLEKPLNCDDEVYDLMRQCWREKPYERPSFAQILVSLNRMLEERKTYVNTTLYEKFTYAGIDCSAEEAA
RIPK1, sequence (Q13546 whole entry): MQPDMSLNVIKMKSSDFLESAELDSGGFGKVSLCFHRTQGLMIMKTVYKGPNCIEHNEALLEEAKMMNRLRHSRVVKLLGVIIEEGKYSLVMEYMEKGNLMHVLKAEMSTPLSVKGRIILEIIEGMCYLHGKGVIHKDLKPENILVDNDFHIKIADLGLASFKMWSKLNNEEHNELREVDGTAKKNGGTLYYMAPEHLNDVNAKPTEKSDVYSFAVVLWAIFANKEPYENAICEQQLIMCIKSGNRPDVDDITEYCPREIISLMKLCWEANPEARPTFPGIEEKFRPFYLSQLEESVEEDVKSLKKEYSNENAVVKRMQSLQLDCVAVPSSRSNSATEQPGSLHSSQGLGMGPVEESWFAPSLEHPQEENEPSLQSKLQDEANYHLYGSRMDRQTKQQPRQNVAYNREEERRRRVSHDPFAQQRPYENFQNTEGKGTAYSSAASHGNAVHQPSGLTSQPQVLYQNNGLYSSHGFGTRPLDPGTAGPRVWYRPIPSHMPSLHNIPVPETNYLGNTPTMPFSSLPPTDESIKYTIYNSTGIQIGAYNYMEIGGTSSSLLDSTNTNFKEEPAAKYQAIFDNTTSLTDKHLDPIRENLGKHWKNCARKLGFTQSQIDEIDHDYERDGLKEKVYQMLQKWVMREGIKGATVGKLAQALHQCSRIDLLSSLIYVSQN

`COc1ccccc1-c1n[nH]c2nc(N[C@H]3CC[C@H](NS(=O)(=O)CCC(F)(F)F)CC3)nc(OC)c12` [compound 31, 3,3,3-Trifluoro-N-(trans-4-((4-methoxy-3-(2-methoxyphenyl)-1H-pyrazolo[3,4-d]pyrimidin-6-yl)amino)cyclohexyl)propane-1-sulfonamide]: the IC50 in assay [1], in assay [2], in [3], in assay [4], in assay [5] and in [6] was at least 20 µM each time. For the same compound, the IC50 in assay [7], in assay [8], in assay [9], in [10], in assay [11] and in assay [12] was at least 20 µM throughout. The IC50 – broadly, the concentration needed to halve the response being measured – in assay [13] was at least 20 µM; in assay [14] it was 1.2 µM; in assay [15], 8.6 µM; in assay [16], at least 20 µM; in [17] it was at least 20 µM; in [18], at least 20 µM. Also, the half-inhibitory concentration (IC50) in assay [19], in [20] and in [21] was at least 20 µM each time.
